Measurements as given in PMC10066365, “Nemacol is a small molecule inhibitor of C. elegans vesicular acetylcholine transporter with anthelmintic potential” (Nature Communications, 2023).
Values joined by “and” are separate entries in the source; they are usually repeats but may differ in a detail not shown here. Equal values may be shown once. Read-outs that look alike come from different tables or passages of the source.

Assays:
C. elegans = C. elegans motor phenotype scoring on solid media (Punc/jerky-unc, coiled, paralyzed), wild-type young adults; type: in vivo, Caenorhabditis elegans; settings: for any phene (mean % fraction of young adults exhibiting any phenotype: coiled, jerky-Unc or paralyzed) / atypical locomotion (number of animals) / coiled (number of animals) / no phene (number of animals) / paralyzed (number of animals) / any phene: mean % fraction of young adults exhibiting any phenotype (coiled, jerky-Unc or paralyzed): one hour; for any phene (mean % fraction of young adults exhibiting any phenotype: coiled, jerky-Unc or paralyzed) / any phene: mean % fraction of young adults exhibiting any phenotype (coiled, jerky-Unc or paralyzed): mean of three biological replicates; for EC50: Caenorhabditis elegans, read-out: C. elegans - motor disruption EC50; for atypical locomotion (number of animals) / coiled (number of animals) / no phene (number of animals) / paralyzed (number of animals): young adults, 20 animals per trial, single technical replicate
Pristionchus pacificus = Pristionchus pacificus motor disruption dose-response on solid media, 1 h; settings: for mean % any phene (coiled, jerky-Unc or paralyzed): Pristionchus pacificus young adults; for mean % any phene (coiled, jerky-Unc or paralyzed) / mean % any phene: mean of three biological replicates; for EC50: Pristionchus pacificus, 1 h, read-out: P. pacificus motor disruption EC50; for rep 1 atypical locomotion / rep 1 coiled / rep 1 no phene / rep 1 paralyzed / rep 2 atypical locomotion / rep 2 coiled / rep 2 no phene / rep 2 paralyzed / rep 3 atypical locomotion / rep 3 coiled / rep 3 no phene / rep 3 paralyzed: count of 20 animals per trial, one hour; for mean % any phene: any phenotype (coiled, jerky-Unc or paralyzed) at one hour
Description: Locomotor phenotype analyses were done in 24-well plates with 1 mL of MYOB substrate (27.5 g Trizma HCl, 12 g Trizma Base, 230 g bacto tryptone, 10 g NaCl, 0.4 g cholesterol (95%)) seeded with 25 µL of OP50 Escherichia coli on each well. Each compound was added to the MYOB substrate before pouring to achieve the desired final concentrations of 30 µM or 60 µM after diffusion through the media. Synchronized young adult worms are transferred into each well using a platinum wire pick. A Leica MZ75 stereomicroscope was used to visualize the movement of worms on the solid substrate. The specific dominant locomotor phenotype (i.e. ‘Punc’, ‘paralyzed’, ‘coiler’ or ‘wild-type locomotion’) was scored after the touch on the head with a platinum wire over a ~3–5 s of observation. […] Coiled animals were not scored as paralyzed despite sometimes not responding to light touch.

[1] = tested on: Dirofilaria immitis L3/L4; assay: Dirofilaria immitis L3/L4 motility assay (DiroImager, 72 h); settings: Dirofilaria immitis L4
[2] = tested on: Dirofilaria immitis microfilariae; assay: Dirofilaria immitis microfilariae immobility assay (DiroImager, 72 h); settings: for % effect (motility), DIROIM MF: Dirofilaria immitis microfilariae
Method in brief: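 Motility read after 72 h drug exposure with an image-based high-throughput plate imager, 1% DMSO medium serving as negative control. Missouri-isolate microfilariae, roughly 250 per well, freshly purified and cultured in supplemented RPMI 1640.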

[3] = 3.75uM, third c14 line of each analog
[4] = 15uM, second c14 line of each analog
[5] = 60uM, first c14 line of each analog
[6] = conc 3.75, observed at one hour
[7] = any motor phenotype after 1 h on solid media, ± 95% CI

Cc1cccc(CN2CCN(c3ccc([N+](=O)[O-])cc3)CC2)c1 [Nemacol-40]
any phene (mean % fraction of young adults exhibiting any phenotype: coiled, jerky-Unc or paralyzed) (C. elegans; [3]): 5%
any phene (mean % fraction of young adults exhibiting any phenotype: coiled, jerky-Unc or paralyzed) (C. elegans; [4]): 14.1667%
any phene (mean % fraction of young adults exhibiting any phenotype: coiled, jerky-Unc or paralyzed) (C. elegans; [5]): 37.5%
EC50 (C. elegans; 1 h): > 60 µM
mean % any phene (coiled, jerky-Unc or paralyzed) (Pristionchus pacificus; [6]): 5%
mean % any phene (coiled, jerky-Unc or paralyzed) (Pristionchus pacificus; conc 15, observed at one hour): 4.167%
mean % any phene (coiled, jerky-Unc or paralyzed) (Pristionchus pacificus; conc 60, observed at one hour): 11.9444%
EC50 (Pristionchus pacificus): > 60 µM
% effect (motility), DIROIM L4 ([1]; 2 µM): 0%
% effect (motility), DIROIM L4 ([1]; 10 µM): 10%
% effect (motility), DIROIM L4 ([1]; 50 µM): 100%
% effect (motility), DIROIM MF ([2]; 0.016 µM): 0%
% effect (motility), DIROIM MF ([2]; 0.08 µM): 0%
% effect (motility), DIROIM MF ([2]; 0.4 µM): 0%
% effect (motility), DIROIM MF ([2]; 2 µM): 0%
% effect (motility), DIROIM MF ([2]; 10 µM): 40%
EC50 ([2]; Dirofilaria immitis, 72 h, read-out: Dirofilaria immitis filariae EC50): 10.7 µM

CC1CCC(N2CCN(c3ccc(Cl)cc3)CC2)C1 (centres unmarked) [Nemacol-44]
any phene (mean % fraction of young adults exhibiting any phenotype: coiled, jerky-Unc or paralyzed) (C. elegans; [3]): 80%
any phene (mean % fraction of young adults exhibiting any phenotype: coiled, jerky-Unc or paralyzed) (C. elegans; [4]): 100%
any phene (mean % fraction of young adults exhibiting any phenotype: coiled, jerky-Unc or paralyzed) (C. elegans; [5]): 100%
EC50 (C. elegans; [7]): 3.4 µM
mean % any phene (coiled, jerky-Unc or paralyzed) (Pristionchus pacificus; [6]): 63.3333%
mean % any phene (coiled, jerky-Unc or paralyzed) (Pristionchus pacificus; conc 15, observed at one hour): 90.7456%
mean % any phene (coiled, jerky-Unc or paralyzed) (Pristionchus pacificus; conc 60, observed at one hour): 100%
EC50 (Pristionchus pacificus): 2.5 ± 1 µM
rep 1 atypical locomotion (Pristionchus pacificus; conc 3.75): 3
rep 1 coiled (Pristionchus pacificus; conc 3.75): 0
rep 1 no phene (Pristionchus pacificus; conc 3.75): 17
rep 1 paralyzed (Pristionchus pacificus; conc 3.75): 0
rep 2 atypical locomotion (Pristionchus pacificus; conc 3.75): 10
rep 2 coiled (Pristionchus pacificus; conc 3.75): 8
rep 2 no phene (Pristionchus pacificus; conc 3.75): 2
rep 2 paralyzed (Pristionchus pacificus; conc 3.75): 0
rep 1 atypical locomotion (Pristionchus pacificus; conc 15): 13
rep 1 coiled (Pristionchus pacificus; conc 15): 7
rep 1 no phene (Pristionchus pacificus; conc 15): 0
rep 1 paralyzed (Pristionchus pacificus; conc 15): 0
rep 2 atypical locomotion (Pristionchus pacificus; conc 15): 0
rep 2 coiled (Pristionchus pacificus; conc 15): 14
rep 2 no phene (Pristionchus pacificus; conc 15): 0
rep 2 paralyzed (Pristionchus pacificus; conc 15): 6
rep 1 atypical locomotion (Pristionchus pacificus; conc 60): 2
rep 1 coiled (Pristionchus pacificus; conc 60): 5
rep 1 no phene (Pristionchus pacificus; conc 60): 0
rep 1 paralyzed (Pristionchus pacificus; conc 60): 13
rep 2 atypical locomotion (Pristionchus pacificus; conc 60): 1
rep 2 coiled (Pristionchus pacificus; conc 60): 7
rep 2 no phene (Pristionchus pacificus; conc 60): 0
rep 2 paralyzed (Pristionchus pacificus; conc 60): 12
% effect (motility), DIROIM L4 ([1]; 2 µM): 0%
% effect (motility), DIROIM L4 ([1]; 10 µM): 0%
% effect (motility), DIROIM L4 ([1]; 50 µM): 10%
% effect (motility), DIROIM MF ([2]; 0.016 µM): 0%
% effect (motility), DIROIM MF ([2]; 0.08 µM): 0%
% effect (motility), DIROIM MF ([2]; 0.4 µM): 0%
% effect (motility), DIROIM MF ([2]; 2 µM): 0%
% effect (motility), DIROIM MF ([2]; 10 µM): 0%

FC(F)(F)c1cccc(N2CCN(CC3CC4C=CC3C4)CC2)c1 (centres unmarked) [Nemacol-47]
any phene (mean % fraction of young adults exhibiting any phenotype: coiled, jerky-Unc or paralyzed) (C. elegans; [3]): 34.1667%
any phene (mean % fraction of young adults exhibiting any phenotype: coiled, jerky-Unc or paralyzed) (C. elegans; [4]): 81.6667%
any phene (mean % fraction of young adults exhibiting any phenotype: coiled, jerky-Unc or paralyzed) (C. elegans; [5]): 100%
EC50 (C. elegans; [7]): 5.7 ± 1.7 µM
mean % any phene (coiled, jerky-Unc or paralyzed) (Pristionchus pacificus; [6]): 79.1667%
mean % any phene (coiled, jerky-Unc or paralyzed) (Pristionchus pacificus; conc 15, observed at one hour): 100%
mean % any phene (coiled, jerky-Unc or paralyzed) (Pristionchus pacificus; conc 60, observed at one hour): 100%
EC50 (Pristionchus pacificus): 2.9 µM
% effect (motility), DIROIM L4 ([1]; 10 µM): 0%
% effect (motility), DIROIM L4 ([1]; 50 µM): 5%
% effect (motility), DIROIM MF ([2]; 0.016 µM): 0%
% effect (motility), DIROIM MF ([2]; 0.08 µM): 0%
% effect (motility), DIROIM MF ([2]; 0.4 µM): 0%
% effect (motility), DIROIM MF ([2]; 2 µM): 0%
% effect (motility), DIROIM MF ([2]; 10 µM): 0%

FC(F)(F)c1cccc(N2CCN(CC3CCCCC3)CC2)c1 [Nemacol-49]
atypical locomotion (number of animals) (C. elegans; 3.75uM): 3 and 2 and 1
coiled (number of animals) (C. elegans; 3.75uM): 0
no phene (number of animals) (C. elegans; 3.75uM): 17 and 18 and 19
paralyzed (number of animals) (C. elegans; 3.75uM): 0
any phene: mean % fraction of young adults exhibiting any phenotype (coiled, jerky-Unc or paralyzed) (C. elegans; 3.75uM): 9.167%
atypical locomotion (number of animals) (C. elegans; 15uM): 12 and 13 and 9
coiled (number of animals) (C. elegans; 15uM): 3 and 1 and 2 and 0
no phene (number of animals) (C. elegans; 15uM): 5 and 7 and 10 and 8
paralyzed (number of animals) (C. elegans; 15uM): 0
any phene: mean % fraction of young adults exhibiting any phenotype (coiled, jerky-Unc or paralyzed) (C. elegans; 15uM): 65%
atypical locomotion (number of animals) (C. elegans; 60uM): 13 and 16 and 10 and 14 and 15
coiled (number of animals) (C. elegans; 60uM): 7 and 4 and 10 and 6 and 1 and 3
no phene (number of animals) (C. elegans; 60uM): 0 and 5 and 2
paralyzed (number of animals) (C. elegans; 60uM): 0
any phene: mean % fraction of young adults exhibiting any phenotype (coiled, jerky-Unc or paralyzed) (C. elegans; 60uM): 94.1667%
EC50 (C. elegans; [7]): 11.2 ± 1.6 µM
EC50 (Pristionchus pacificus): > 60 µM
mean % any phene (Pristionchus pacificus; conc 3.75): 0%
rep 1 atypical locomotion (Pristionchus pacificus; conc 3.75): 0
rep 1 coiled (Pristionchus pacificus; conc 3.75): 0
rep 1 no phene (Pristionchus pacificus; conc 3.75): 20
rep 1 paralyzed (Pristionchus pacificus; conc 3.75): 0
rep 2 atypical locomotion (Pristionchus pacificus; conc 3.75): 0
rep 2 coiled (Pristionchus pacificus; conc 3.75): 0
rep 2 no phene (Pristionchus pacificus; conc 3.75): 20
rep 2 paralyzed (Pristionchus pacificus; conc 3.75): 0
rep 3 atypical locomotion (Pristionchus pacificus; conc 3.75): 0
rep 3 coiled (Pristionchus pacificus; conc 3.75): 0
rep 3 no phene (Pristionchus pacificus; conc 3.75): 20
rep 3 paralyzed (Pristionchus pacificus; conc 3.75): 0
mean % any phene (Pristionchus pacificus; conc 15): 0%
rep 1 atypical locomotion (Pristionchus pacificus; conc 15): 0
rep 1 coiled (Pristionchus pacificus; conc 15): 0
rep 1 no phene (Pristionchus pacificus; conc 15): 20
rep 1 paralyzed (Pristionchus pacificus; conc 15): 0
rep 2 atypical locomotion (Pristionchus pacificus; conc 15): 0
rep 2 coiled (Pristionchus pacificus; conc 15): 0
rep 2 no phene (Pristionchus pacificus; conc 15): 20
rep 2 paralyzed (Pristionchus pacificus; conc 15): 0
rep 3 atypical locomotion (Pristionchus pacificus; conc 15): 0
rep 3 coiled (Pristionchus pacificus; conc 15): 0
rep 3 no phene (Pristionchus pacificus; conc 15): 20
rep 3 paralyzed (Pristionchus pacificus; conc 15): 0
mean % any phene (Pristionchus pacificus; conc 60): 12.5%
rep 1 atypical locomotion (Pristionchus pacificus; conc 60): 2
rep 1 coiled (Pristionchus pacificus; conc 60): 0
rep 1 no phene (Pristionchus pacificus; conc 60): 18
rep 1 paralyzed (Pristionchus pacificus; conc 60): 0
rep 2 coiled (Pristionchus pacificus; conc 60): 0
rep 2 no phene (Pristionchus pacificus; conc 60): 17 and 19
rep 2 paralyzed (Pristionchus pacificus; conc 60): 0
rep 3 atypical locomotion (Pristionchus pacificus; conc 60): 4 and 3
rep 3 coiled (Pristionchus pacificus; conc 60): 0
rep 3 no phene (Pristionchus pacificus; conc 60): 16 and 17
rep 3 paralyzed (Pristionchus pacificus; conc 60): 0
% effect (motility), DIROIM L4 ([1]; 10 µM): 0%
% effect (motility), DIROIM L4 ([1]; 50 µM): 10%
% effect (motility), DIROIM MF ([2]; 0.016 µM): 0%
% effect (motility), DIROIM MF ([2]; 0.08 µM): 0%
% effect (motility), DIROIM MF ([2]; 0.4 µM): 0%
% effect (motility), DIROIM MF ([2]; 2 µM): 0%
% effect (motility), DIROIM MF ([2]; 10 µM): 0%
